Measurements as given in publication PMC11477298, “Small Molecules Inducing Autophagic Degradation of Expanded Polyglutamine Protein through Interaction with Both Mutant ATXN3 and LC3” (International Journal of Molecular Sciences, 2024).

Columns and labels:
Assay type in all cases: cell-based, human
[1] = MTT compound cytotoxicity assay; conditions: human, ATXN3-Q75-GFP SH-SY5Y cells, 0.1–100 μM compound, viability analyzed the next day, n = 3
Procedure: For the compound cytotoxicity assay, ATXN3-Q75-GFP SY5Y cells (2 × 10^4) were plated into 96-well dishes, grown for 20 h, and treated with 0.1–100 μM test compounds. After 1 day, 3-(4,5-dimethylthiazol-2-yl)-2,5-diphenyltetrazolium bromide (MTT, 5 mg/mL) (Sigma-Aldrich, St. Louis, MO, USA) was added to the cells and incubated for 3 h at 37 °C. Lysis buffer (10% Triton X-100, 0.1 N HCl, 18% isopropanol) was then added to dissolve the insoluble formazan crystals. The absorbance of the purple-colored solution was measured at optical density (OD) 570 nm by using a FLx800 fluorescence microplate spectrophotometer (Bio-Tek, Winooski, VT, USA). The half-maximal inhibitory concentration (IC50) was calculated through the construction of a dose–response curve.

[2] = system: ATXN3-Q75-GFP SH-SY5Y cells; assay: High-content neurite outgrowth assay; conditions: for Neurite branch: untreated 1.16; for Neurite length: untreated 23.2 µm
Procedure: (§1) ATXN3-Q75-GFP SH-SY5Y cells (5 × 10^4/well) were plated onto 24-well plates, with retinoic acid addition (10 µM; Sigma-Aldrich) on day 1 to initiate neuronal differentiation. On day 2, the cells were pretreated with disaccharide trehalose (10 mM, as a positive control) or the studied compounds (10 μM) for 8 h, followed by the addition of doxycycline (5 μg/mL, Sigma-Aldrich) to induce ATXN3-Q75-GFP expression. The cells were kept in the medium containing retinoic acid, the test compound, and doxycycline for 6 days, with the culture medium changed on day 5. ATXN3-Q75 aggregation and neurite outgrowth assays were performed on day 8 using a high-content imaging system (ImageXpress Micro Confocal; Molecular Devices).
For the aggregation assay, cells were stained with Hoechst 33342 (0.1 µg/mL; Sigma-Aldrich) at 37 °C for 30 min. Images of the cells were automatically obtained at excitation/emission wavelengths of 482/536 nm (FITC [fluorescein isothiocyanate] filter) for enhanced GFP and 377/447 nm (DAPI [4′,6-diamidino-2-phenylindole] filter) for nucleus counting. ATXN3-Q75 aggregation was determined by Transfluor technology based on GFP fluorescence intensity. For the neurite outgrowth assay, cells were fixed with 4% paraformaldehyde for 30 min, permeabilized with 0.1% Triton X-100 for 10 min, and blocked by non-specific binding with 3% bovine serum albumin for 20 min. The primary TUBB3 (neuronal class III β-tubulin) antibody (1:1000; BioLegend #802001, San Diego, CA, USA) was used to stain cells at 4 °C overnight, followed by Alexa Fluor 555-donkey anti-rabbit IgG secondary antibody (1:1000; Invitrogen #A-31572) staining for 2 h at room temperature. Nuclei were detected using DAPI (0.1 μg/mL; Sigma-Aldrich). Cell images were obtained at excitation/emission wavelengths of 531/593 nm (TRITC [tetramethylrhodamine] filter) for stained neurites and 377/447 nm (DAPI filter) for nuclei. To quantify neurite outgrowth, microscopic images were segmented with multi-colored masks to assign each outgrowth to a cell body for quantification. Neurite total length (μm) and numbers of process (primary neurites originating from neuronal cell body) and branch (secondary neurites extended from primary neurites) were analyzed (Neurite Outgrowth Application Module; Molecular Devices). In general, […] in each biological replicate were analyzed.

[3] = system: ATXN3-Q75-GFP SH-SY5Y cells; assay: Confocal microscopy of LC3 puncta, ATXN3-Q75 aggregates and P62 colocalization; conditions: range over trehalose and the four compounds; for Colocalization coefficient of ATXN3-Q75-GFP with LC3 puncta: untreated 0.014; for Colocalization coefficient of LC3 with P62: untreated 0.21; for LC3 puncta per cell: untreated induced 2.7
Procedure: ATXN3-Q75-GFP SY5Y cells were seeded onto 12-well plates (1 × 10^5/well) containing poly-L-lysine-coated coverslip on day 1; treated with retinoic acid, test compounds, and doxycycline on day 2; and fixed, permeabilized, and blocked on day 8, as described. The primary anti-LC3 antibody (1:1000; Cell Signaling #83506, Danvers, MA, USA) or anti-P62 antibody (1:1500; Cell Signaling #5114) was used to stain cells at 4 °C overnight. After washing with PBS containing 0.1% Tween 20 (PBST), cells were incubated for 2 h at room temperature with Cy5-conjugated (1:1000, Jackson ImmunoResearch 715-175-150) or Alexa Fluor 555-conjugated (1:500; Invitrogen #A-31572) secondary antibody, and washed three times with PBST. Nuclei were detected using DAPI (0.1 μg/mL; Sigma-Aldrich). The stained cells on coverslips were mounted onto microscope slides with Vectashield antifade mounting medium (Vector Laboratories, Newark, CA, USA) and examined using a Zeiss LSM880 confocal microscope (Carl Zeiss AG, Oberkochen, Baden-Württemberg, Germany). Cell images were acquired at excitation/emission wavelengths of 649/666 nm, 482/536 nm, 555/582 nm, and 385/461 nm for stained LC3 puncta, aggregates, P62, and nuclei, respectively. For colocalization, 300 cells from three independent experiments were analyzed and quantified for the proportion of pixels that LC3 (red) colocalized with P62 (yellow) using Mander’s overlap coefficient (MOC) in ZEN software version 2.1 (Carl Zeiss AG).

[4] = system: ATXN3-Q75-GFP SH-SY5Y cells; assay: Western blot of LC3-II:LC3-I ratio; conditions: uninduced = 100%, untreated induced 76%, range over trehalose and the four compounds
Procedure: For the immunoblotting analysis, ATXN3-Q75-GFP SH-SY5Y cells were seeded in 6-well plates (3 × 10^5/well) and treated with retinoic acid, test compounds, and doxycycline, as described. On day 8, cells were collected and lysed in buffer (50 mM Tris-HCl pH 8.0, 150 mM NaCl, 2 mM EDTA pH 8.0, 0.1% SDS, 0.5% sodium deoxycholate, 1% NP-40) containing the protease inhibitor cocktail (Sigma-Aldrich). After sonication, the lysates were centrifuged (12,000× g for 10 min at 4 °C) and protein concentrations determined (Bradford protein assay; Bio-Rad, Hercules, CA, USA). Aliquots of protein (20 µg) were separated by electrophoresis using 12% SDS-polyacrylamide gel followed by transfer to a polyvinylidene fluoride membrane. After being blocked with 5% skim milk at 4 °C overnight, the membrane was stained with LC3 (1:1000; Medical & Biological Laboratories Co. #PM036, Tokyo, Japan) or GAPDH (glyceraldehyde 3-phosphate dehydrogenase) (1:1000, MDBio #30000002, Taipei, Taiwan) primary antibody at 4 °C overnight. The immune complexes were detected using HRP-conjugated goat anti-rabbit IgG antibody and chemiluminescent substrate, as described.

[5] = system: ATXN3-Q75-GFP SH-SY5Y cells; assay: High-content analysis of ATXN3-Q75 aggregation in cells; conditions: trehalose 10 mM; untreated induced cells 8.2%; day 8
Procedure: as §1, with “ATXN3-Q75 aggregation and neurite outgrowth assays were performed on day 8 using a high-content imaging system (ImageXpress Micro Confocal; Molecular Devices).” left out
For the aggregation assay, cells were stained with Hoechst 33342 (0.1 µg/mL; Sigma-Aldrich) at 37 °C for 30 min. […] ATXN3-Q75 aggregation was determined by Transfluor technology based on GFP fluorescence intensity. […] Nuclei were detected using DAPI (0.1 μg/mL; Sigma-Aldrich). […] To quantify neurite outgrowth, microscopic images were segmented with multi-colored masks to assign each outgrowth to a cell body for quantification. Neurite total length (μm) and numbers of process (primary neurites originating from neuronal cell body) and branch (secondary neurites extended from primary neurites) were analyzed (Neurite Outgrowth Application Module; Molecular Devices). In general, 104 cells in each biological replicate were analyzed.

[6] = system: ATXN3-Q75-GFP SH-SY5Y cells; assay: Filter trap assay of cell lysates; conditions: trehalose 10 mM; without compound = 100%
Procedure: The filter retardation assay was performed to quantify ATXN3-Q75 protein aggregates. The purified Trx-His-ATXN3-Q75 protein was incubated with test compounds (100 µM) at 37 °C for 2 days as described. In addition, proteins from compound-treated ATXN3-Q75-GFP SH-SY5Y cells were prepared (as described in Western blotting). Proteins (0.5 µg of biochemical reaction or 20 µg of cellular lysates) were diluted in 2% SDS in phosphate-buffered saline (PBS) and filtered through a cellulose acetate membrane (0.45-μm pore size; Sterlitech, Auburn, WA, USA) pre-equilibrated in 2% SDS in PBS on a dot-blot filtration apparatus (Bio-Rad Laboratories, Hercules, CA, USA). After washing with 2% SDS buffer, the membrane was blocked in PBS containing 5% skim milk at 4 °C overnight. Insoluble ATXN3-Q75 was probed with an anti-His tag (1:2000; OriGene #TA100013, Rockville, MD, USA) or anti-ATXN3 (1:1000; Invitrogen #PA5-26251) antibody. The immune complex on the filter was detected using horseradish peroxidase (HRP)-conjugated goat anti-mouse (#GTX213111-01) or goat anti-rabbit (#GTX213110-01) immunoglobulin G (IgG) antibody (1:5000; GeneTex, Irvine, CA, USA) and a chemiluminescent HRP substrate (Millipore, Billerica, MA, USA). The chemiluminescent signals were captured with an ImageQuant LAS 4000 (GE Healthcare, Chicago, IL, USA) and quantified (Multi Gauge V3.0 software, Fujifilm, Tokyo, Japan). […]

[7] = compound 10 µM, range over the four named compounds

CCc1cccc2c(C/C(=C/c3ccccc3[N+](=O)[O-])C(C)=O)c[nH]c12 [NC009-6]
IC50 at 1 day [1]: 176 µM
Neurite branch [2, 7]: 1.34–1.37
Neurite process ([2]; compound 10 µM, untreated 2.41, range over the four named compounds): 2.55–2.57
Neurite length [2, 7]: 26.1–26.9 µm
Colocalization coefficient of ATXN3-Q75-GFP with LC3 puncta ([3]; compound 10 μM): 0.025–0.030
Colocalization coefficient of LC3 with P62 ([3]; compound 10 μM): 0.26–0.29
LC3 puncta per cell ([3]; compound 10 μM): 4.6–6.7
Relative LC3-II:LC3-I ratio ([4]; compound 10 μM): 102–124%

OC[C@H]1O[C@H](O[C@H]2O[C@H](CO)[C@@H](O)[C@H](O)[C@H]2O)[C@H](O)[C@@H](O)[C@@H]1O [trehalose, reference compound]
Percentage of aggregated cells [5]: 7.4%
Insoluble aggregated proteins in cell lysates (filter trap) [6]: 45%
Neurite branch ([2]; trehalose 10 mM): 1.31
Neurite length ([2]; trehalose 10 mM): 25.5 µm
Colocalization coefficient of ATXN3-Q75-GFP with LC3 puncta ([3]; trehalose 10 mM): 0.025–0.030
Colocalization coefficient of LC3 with P62 ([3]; trehalose 10 mM): 0.26–0.29
LC3 puncta per cell ([3]; trehalose 10 mM): 4.6–6.7
Relative LC3-II:LC3-I ratio ([4]; trehalose 10 mM): 102–124%

CC(=O)/C(=C\c1ccccc1[N+](=O)[O-])Cc1c(-c2ccccc2)[nH]c2ccccc12 [NC009-3]
IC50 at 1 day [1]: > 100 µM

O=C(/C=C/c1ccco1)c1c(O)c2ccccc2oc1=O [LM-022]
IC50 at 1 day [1]: 102 µM
